Laboratory results: patent US20250213598A1, “COMPOUNDS AS ELASTASE INHIBITOR AND SOLID FORM THEREOF” (priority 2023, published 2025)
≈ marks a conversion by molar mass, not a printed value.

How the values were obtained:
[1] = Mechanical stability of crystal form A (grinding experiment, XRPD); type: physicochemical; details: room temperature
Protocol: A certain amount of crystal form A of the compound shown in Formula (I) was weighed, and ground dry or wet with an appropriate amount of water for 3 minutes at room temperature (˜23° C., 70% RH) to evaluate the mechanical stability of the crystal form A. The XRPD spectrums are shown in FIG. 6.

[2] = Solid-state stability, 2-week study (HPLC, XRPD); type: physicochemical; details: for crystal form changes in the two-week stability assessment: 25° C./60% RH, 40° C./75% RH, two weeks
Protocol: The solubility and stability are analyzed using an Agilent 1260 infinityII Binary Pump. • 4.

[3] = Photostability of crystal form A and amorphous form; type: physicochemical; details: for Content (%) / Crystal form / Purity (area %) / Relative to initial (%): After 11 days, 25° C., illumination 5000 lux/h, near-ultraviolet 90 μW/cm^2; for crystal form changes in the photostability test: light conditions
Protocol: A certain amount of crystal form A and amorphous form of the compound shown in Formula (I) were respectively taken, and the stabilities of crystal form A and amorphous form were evaluated under light conditions.

[4] = Dynamic solubility in citrate buffer solutions at room temperature; type: physicochemical; details: for pH: supernatant
Protocol: During the test, about 200 mg of crystal form A or the amorphous form was added into 5 mL of buffered salt medium (approximately 40 mg/mL), and stirred magnetically at room temperature (approximately 25° C.). 1 mL of the suspension (or clear solution) taken at each of 2, 8, and 30 hours were centrifugated. The obtained solid is for crystal form detection (XRPD), and the supernatant/clear liquid after filtration is for solubility testing (HPLC) and pH testing.

[5] = molecular target: T1, Recombinant Human Elastase (rhElastase) (Homo sapiens, UniProt P08246); assay: Activity test against recombinant human elastase (rhElastase); type: biochemical
T1 sequence (P08246 30-267): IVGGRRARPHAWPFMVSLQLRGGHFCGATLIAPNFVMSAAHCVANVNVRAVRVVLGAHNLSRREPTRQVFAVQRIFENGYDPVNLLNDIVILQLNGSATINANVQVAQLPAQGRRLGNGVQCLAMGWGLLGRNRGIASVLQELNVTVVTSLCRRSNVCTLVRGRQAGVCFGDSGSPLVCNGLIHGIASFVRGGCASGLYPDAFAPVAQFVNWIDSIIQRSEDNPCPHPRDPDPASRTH
Protocol: Activation of protease: rhElastase was diluted to 2 μM with an activation buffer containing 1.25 μM Recombinant Mouse Active Cathepsin C Protein (mCathepsin C), and incubated at 37° C. for 2 h. After activation, the mature rhElastase was diluted to form a 3.33 nM rhElastase reaction solution. The compound was diluted in serial with DMSO and added to a 384-well plate (3-fold serial dilution, 10 concentration points, duplicate wells). For the 384-well plate containing the compound, columns 1-12 each was added with 15 μL of the reaction buffer and columns 13-24 each was added with 15 μL of the rhElastase reaction solution. The plate was pre-incubated at 25° C. for 30 min and added with 5 μL of the substrate to start the reaction. The final concentration of rhElastase is 2.5 nM, and the final concentration of the substrate is 3.125 μM. The final concentration of DMSO in the reaction system is 1%. After incubating at 37° C. for 60 min, the fluorescence value was read with an M4 microplate reader. The detection conditions are Ex/Em=380 nm/460 nm.

[6] = Pharmacokinetic experiment in Sprague-Dawley rats (intravenous / inhalation; plasma and lung); type: in vivo
Protocol: The appropriate amount of sodium citrate was weighed and dissolved in water to prepare a sodium citrate solution with a concentration of 1 mg/ml. After the addition of compound (I) (appropriate amount) under stirring, the sodium citrate solution was slowly added with 1 M sodium hydroxide solution to adjust the pH to 5.0±0.2. After stirring, dissolving and filtering, a stock solution of compound (I) with a concentration of 80 mg/ml was obtained, which is administrated by inhalation. The stock solution was diluted in a continuous gradient method to give a solution of compound (I) with a concentration of 0.4 mg/ml for intravenous administration.
21 male Sprague-Dawley rats was selected and divided into 7 groups (3 animals/group). Group 1 was administered intravenously at a dose of 2 mg/kg, and groups 2-7 are administered by inhalation at a designed dose of 15 mg/kg (an actual delivered dose is 16.712 mg/kg). For animals in groups 1-2, blood samples were collected before administration and at 2 min, 5 min, 15 min, 30 min, 1 h, 2 h, 4 h, 6 h, 8 h, and 24 h after administration. For animals in groups 3-7, lung tissues and blood samples were collected at 0.25 h, 1 h, 2 h, 6 h, and 12 h after administration (i.e., 2.25 h, 3 h, 4 h, 8 h, and 14 h After the start of the drug administration). The LC-MS/MS was used to analyze the concentration of compound (I) in the plasma and lung tissues of rats, and the non-compartmental model (NCA) of the pharmacokinetic analysis software WinNonlin (8.0.0.3176) is used to analyze the drug concentrations in plasma and lung tissue and calculate the pharmacokinetic parameters.

[7] = Citrate buffer pH = 3.5, room temperature, 2 hours
[8] = Citrate buffer pH = 3.5, room temperature, 8 hours
[9] = Citrate buffer pH = 3.5, room temperature, 30 hours
[10] = Citrate buffer pH = 4.5, room temperature, 2 hours
[11] = Citrate buffer pH = 4.5, room temperature, 8 hours
[12] = Citrate buffer pH = 4.5, room temperature, 30 hours
[13] = citrate buffer pH = 3.5, 2 hours
[14] = citrate buffer pH = 3.5, 8 hours
[15] = citrate buffer pH = 3.5, 30 hours
[16] = citrate buffer pH = 4.5, 2 hours
[17] = citrate buffer pH = 4.5, 8 hours
[18] = citrate buffer pH = 4.5, 30 hours
[19] = Inhalation, 15 mg/kg, SD rats, matrix Lung
[20] = Inhalation, 15 mg/kg, male SD rats, plasma
[21] = Intravenous, 2 mg/kg, male SD rats, plasma

CC(C)[C@H](NC(=O)[C@@H]1CCCN1C(=O)[C@@H](NC(=O)c1ccc(C(=O)NCC(=O)O)cc1)C(C)C)B1OB([C@@H](NC(=O)[C@@H]2CCCN2C(=O)[C@@H](NC(=O)c2ccc(C(=O)NCC(=O)O)cc2)C(C)C)C(C)C)OB([C@@H](NC(=O)[C@@H]2CCCN2C(=O)[C@@H](NC(=O)c2ccc(C(=O)NCC(=O)O)cc2)C(C)C)C(C)C)O1 [Form A]
Achieved Crystal Form ([1]; Dry grind for 3 minutes): Amorphous
Achieved Crystal Form ([1]; Dry grind for 3 minutes, listed as crystal form A): transformed into the amorphous form
Achieved Crystal Form ([1]; Wet grind with water for 3 minutes): Form A
Achieved Crystal Form ([1]; Wet grind with water for 3 minutes, listed as crystal form A): remains unchanged
Content (%) ([2]; 25° C./60 % RH, 1 week): 86.07%
Crystal form ([2]; 25° C./60 % RH, 1 week): Form A
Purity (area %) ([2]; 25° C./60 % RH, 1 week): 97.98 area %
Relative to initial (%) ([2]; 25° C./60 % RH, 1 week): 98.9%
Content (%) ([2]; 25° C./60 % RH, 2 weeks): 86.60%
Crystal form ([2]; 25° C./60 % RH, 2 weeks): Form A
Purity (area %) ([2]; 25° C./60 % RH, 2 weeks): 97.68 area %
Relative to initial (%) ([2]; 25° C./60 % RH, 2 weeks): 98.6%
crystal form changes in the two-week stability assessment ([2]; 60° C.): neither the amorphous form nor crystal form A underwent crystal form changes
Content (%) ([2]; 40° C./75 % RH, 1 week): 86.41%
Crystal form ([2]; 40° C./75 % RH, 1 week): Form A
Purity (area %) ([2]; 40° C./75 % RH, 1 week): 97.96 area %
Relative to initial (%) ([2]; 40° C./75 % RH, 1 week): 98.9%
Content (%) ([2]; 40° C./75 % RH, 2 weeks): 86.85%
Crystal form ([2]; 40° C./75 % RH, 2 weeks): Form A
Purity (area %) ([2]; 40° C./75 % RH, 2 weeks): 97.76 area %
Relative to initial (%) ([2]; 40° C./75 % RH, 2 weeks): 98.7%
Content (%) ([2]; 60° C., 1 week): 87.34%
Crystal form ([2]; 60° C., 1 week): Form A
Purity (area %) ([2]; 60° C., 1 week): 98.16 area %
Relative to initial (%) ([2]; 60° C., 1 week): 99.1%
Content (%) ([2]; 60° C., 2 weeks): 87.98%
Crystal form ([2]; 60° C., 2 weeks): Form A
Purity (area %) ([2]; 60° C., 2 weeks): 97.50 area %
Relative to initial (%) ([2]; 60° C., 2 weeks): 98.4%
Content (%) ([2]; initial): 87.08%
Crystal form ([2]; initial): Form A
Purity (area %) ([2]; initial): 99.05 area %
Content (%) [3]: 85.00%
Crystal form [3]: Form A
Purity (area %) [3]: 97.92 area %
Relative to initial (%) [3]: 98.9%
Initial Sample Content (%) [3]: 87.08%
Initial Sample Purity (area %) [3]: 99.05 area %
crystal form changes in the photostability test [3]: neither the amorphous form nor crystal form A underwent crystal form changes
Solubility [4, 7]: 6.15 mg/mL (≈ 4.1 mM)
Solubility [4, 8]: 15.28 mg/mL (≈ 10.2 mM)
Solubility [4, 9]: 27.16 mg/mL (≈ 18.1 mM)
Solubility [4, 10]: 16.06 mg/mL (≈ 10.7 mM)
Solubility [4, 11]: 31.34 mg/mL (≈ 20.9 mM)
Solubility [4, 12]: >34.94 mg/mL
pH [4, 13]: 3.56
pH [4, 14]: 3.58
pH [4, 15]: 3.56
pH [4, 16]: 4.48
pH [4, 17]: 4.46
pH [4, 18]: 4.38

C#Cc1c(F)ccc2cc(O)cc(-c3ncc4c(N5CC6CCC(C5)N6)nc(OC[C@@]56CCCN5C[C@H](F)C6)nc4c3F)c12 [Amorphous]
Content (%) ([2]; 25° C./60 % RH, 1 week): 88.54%
Crystal form ([2]; 25° C./60 % RH, 1 week): Amorphous
Purity (area %) ([2]; 25° C./60 % RH, 1 week): 97.58 area %
Relative to initial (%) ([2]; 25° C./60 % RH, 1 week): 99.0%
Content (%) ([2]; 25° C./60 % RH, 2 weeks): 86.62%
Crystal form ([2]; 25° C./60 % RH, 2 weeks): Amorphous
Purity (area %) ([2]; 25° C./60 % RH, 2 weeks): 96.98 area %
Relative to initial (%) ([2]; 25° C./60 % RH, 2 weeks): 98.4%
crystal form changes in the two-week stability assessment ([2]; 60° C.): neither the amorphous form nor crystal form A underwent crystal form changes
Content (%) ([2]; 40° C./75 % RH, 1 week): 87.54%
Crystal form ([2]; 40° C./75 % RH, 1 week): Amorphous
Purity (area %) ([2]; 40° C./75 % RH, 1 week): 97.87 area %
Relative to initial (%) ([2]; 40° C./75 % RH, 1 week): 99.3%
Content (%) ([2]; 40° C./75 % RH, 2 weeks): 86.77%
Crystal form ([2]; 40° C./75 % RH, 2 weeks): Amorphous
Purity (area %) ([2]; 40° C./75 % RH, 2 weeks): 96.87 area %
Relative to initial (%) ([2]; 40° C./75 % RH, 2 weeks): 98.3%
Content (%) ([2]; 60° C., 1 week): 90.96%
Crystal form ([2]; 60° C., 1 week): Amorphous
Purity (area %) ([2]; 60° C., 1 week): 96.97 area %
Relative to initial (%) ([2]; 60° C., 1 week): 98.4%
Content (%) ([2]; 60° C., 2 weeks): 88.93%
Crystal form ([2]; 60° C., 2 weeks): Amorphous
Purity (area %) ([2]; 60° C., 2 weeks): 96.14 area %
Relative to initial (%) ([2]; 60° C., 2 weeks): 97.5%
Content (%) ([2]; initial): 90.28%
Crystal form ([2]; initial): Amorphous
Purity (area %) ([2]; initial): 98.56 area %
Content (%) [3]: 82.68%
Crystal form [3]: Amorphous
Purity (area %) [3]: 93.42 area %
Relative to initial (%) [3]: 94.8%
Initial Sample Content (%) [3]: 90.28%
Initial Sample Purity (area %) [3]: 98.56 area %
crystal form changes in the photostability test [3]: neither the amorphous form nor crystal form A underwent crystal form changes
Solubility [4, 7]: >37.77 mg/mL
Solubility [4, 8]: >38.95 mg/mL
Solubility [4, 9]: >37.45 mg/mL
Solubility [4, 10]: >33.47 mg/mL
Solubility [4, 11]: >35.71 mg/mL
Solubility [4, 12]: >37.52 mg/mL
solubility in the citrate buffer systems (in words) ([4]; citrate buffer pH=3.5 and pH=4.5): excellent solubility
pH [4, 13]: 3.63
pH [4, 14]: 3.59
pH [4, 15]: 3.56
pH [4, 16]: 4.46
pH [4, 17]: 4.44
pH [4, 18]: 4.40

CC(C)C(NC(=O)C1CCCN1C(=O)C(NC(=O)c1ccc(C(=O)NCC(=O)O)cc1)C(C)C)B1OB(C(NC(=O)C2CCCN2C(=O)C(NC(=O)c2ccc(C(=O)NCC(=O)O)cc2)C(C)C)C(C)C)OB(C(NC(=O)C2CCCN2C(=O)C(NC(=O)c2ccc(C(=O)NCC(=O)O)cc2)C(C)C)C(C)C)O1 (stereo not shown) [compound (I)]
IC50 [5]: 1.32 nM
Cmax [6, 19]: 67568.60
Tmax [6, 19]: 2.25 h
t1/2 [6, 19]: 2.69 h
Tmax ([6]; Inhalation, 15 mg/kg, SD rats, matrix Plasma): 2.25 h
Cmax ([6]; Inhalation, 15 mg/kg, SD rats, matrix Plasma, in ng/mL): 320.58
AUClast ([6]; Inhalation, 15 mg/kg, SD rats, matrix Plasma, in ng·h/mL): 622.35
F % ([6]; Inhalation, 15 mg/kg, male SD rats): 18.09%
AUClast [6, 20]: 1501.79 ± 486.138 ng·h/mL
Cmax [6, 20]: 798.55 ± 333.20 ng/mL
Tmax [6, 20]: 2.03 ± 0.0 h
t1/2 [6, 20]: 1.91 ± 1.05 h
AUClast [6, 21]: 1107.18 ± 144.07 ng·h/mL
Cmax [6, 21]: 5331.49 ± 696.49 ng/mL
Tmax [6, 21]: 0.03 ± 0.0 h
t1/2 [6, 21]: 0.33 ± 0.10 h
